Data as given in patent US10538555B2, “Macrocyclic inhibitors of the PD-1/PD-L1 and CD80(B7-1)/PD-L1 protein/protein interactions” (BRISTOL-MYERS SQUIBB COMPANY, priority 2014, dated 2020).
Where two headings read alike, the source gives them in different places. *1 amine or outer side, *2 acyl side, *3 side chain or, on linkers, in order; H or OH if unused. Where a SMILES comes first, the peptide text is derived from it. Bridges are numbered along the chain shown (N, C = ends). [ ]: non-standard residue; d: D form. ξ: configuration not given here. Trp(1-CH2COOH) = N[C@@H](Cc1cn(CC(=O)O)c2ccccc12)C(=O)O; Trp(βS-Me) = C[C@@H](c1c[nH]c2ccccc12)[C@H](N)C(=O)O; Phe(3,4,5-F3) = N[C@@H](Cc1cc(F)c(F)c(F)c1)C(=O)O; Phe(3,4-F2) = N[C@@H](Cc1ccc(F)c(F)c1)C(=O)O; NMePhe(4-F) = CN[C@@H](Cc1ccc(F)cc1)C(=O)O; ξTrp(7-aza) = NC(Cc1c[nH]c2ncccc12)C(=O)O; dPro(4S-Me) = C[C@@H]1CN[C@@H](C(=O)O)C1; d(cisHyp) = O=C(O)[C@H]1C[C@@H](O)CN1; Hyp = O=C(O)[C@@H]1C[C@@H](O)CN1; NMeF = CN[C@@H](Cc1ccccc1)C(=O)O; X1 = O=C([C@H]1COCCN1[*:1])[*:2]; dNMeF = CN[C@H](Cc1ccccc1)C(=O)O; dHyp = O=C(O)[C@H]1C[C@H](O)CN1; Cha = N[C@@H](CC1CCCCC1)C(=O)O; Thr(3ξ) = CC(O)[C@H](N)C(=O)O; NMeNle = CCCC[C@H](NC)C(=O)O; dPip = O=C(O)[C@H]1CCCCN1; hSer = N[C@@H](CCO)C(=O)O; NMeA = CN[C@@H](C)C(=O)O; Orn = NCCC[C@H](N)C(=O)O; dNMeA = CN[C@H](C)C(=O)O; Dab = NCC[C@H](N)C(=O)O; Dap = NC[C@H](N)C(=O)O; ξP = O=C(O)C1CCCN1; ξC = NC(CS)C(=O)O; Sar = CNCC(=O)O

Molecular target: T1, Human PD-L1/PD-1 (Homo sapiens, UniProt Q9NZQ7)
T1 construct: TVMV protease cleavage site (C); made in house; host or cells: HEK293T cells
T1 sequence (Q9NZQ7 with tags, fused parts or gaps): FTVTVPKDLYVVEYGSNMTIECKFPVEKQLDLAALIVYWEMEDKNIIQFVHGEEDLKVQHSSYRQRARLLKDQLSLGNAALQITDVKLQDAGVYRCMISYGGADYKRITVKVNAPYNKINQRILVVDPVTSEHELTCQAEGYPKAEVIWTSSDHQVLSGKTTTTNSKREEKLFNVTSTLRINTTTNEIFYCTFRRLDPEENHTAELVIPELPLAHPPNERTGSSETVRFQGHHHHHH
Test: HTRF Human PD-L1/PD-1 binding assay (PD-1-Ig/PD-L1-His)
Details: PD-L1-His 10 nM, PD-1-Ig 20 nM
Summary of the method: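 Compound preincubated 15 min with PD-L1-His (10 nM final), then PD-1-Ig (20 nM final) added for 15 min in dPBS with 0.1% BSA and 0.05% Tween-20. Detection by Eu-cryptate anti-Ig (1 nM) and APC anti-His (20 nM) after 30 min; 665/620 nm HTRF ratio. Proteins expressed in HEK293T.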

[1] = class symbol, read-out: HTRF Human PD-L1/PD-1 Binding Assay IC50 Range
[2] = read-out: HTRF Human PD-L1/PD-1 Binding Assay IC50

SMILES	IC50 [1]	IC50 [2]
CCCC[C@H]1C(=O)N(C)[C@@H](CCCC)C(=O)N[C@@H](C(C)O)C(=O)N[C@H](C(=O)NCC(N)=O)CSCC(=O)N[C@@H](Cc2ccc(OC)cc2)C(=O)N(C)[C@@H](C)C(=O)N[C@@H](CC(N)=O)C(=O)N2CCC[C@H]2C(=O)N[C@@H](Cc2c[nH]cn2)C(=O)N[C@@H](CCC(N)=O)C(=O)N2C[C@H](O)C[C@H]2C(=O)N[C@@H](Cc2c[nH]c3ccccc23)C(=O)N[C@@H](CO)C(=O)N[C@@H](Cc2c[nH]c3ccccc23)C(=O)N1C (stereo partly drawn) [Example 7139] ({CH2CO}-Y(Me)[NMeA]NPHQ[Hyp]WSW[NMeNle][NMeNle][Thr(3ξ)]CG-NH2; thioether N-14)	1 to 9.9 nM	–
CC(C)C[C@@H]1NC(=O)[C@H](Cc2ccc(O)cc2)NC(=O)[C@H](Cc2c[nH]c3ccccc23)NC(=O)[C@@H](C)N(C)C(=O)[C@H](Cc2ccc(O)cc2)NC(=O)[C@H](Cc2ccccc2)N(C)C(=O)[C@H](C(C)C)NC(=O)[C@H](CCO)NC(=O)[C@@H](C)N(C)C(=O)[C@H](C)N(C)C(=O)[C@H](Cc2ccccc2)N(C)C(=O)[C@H](Cc2cc(F)c(F)c(F)c2)NC(=O)CSC[C@@H](C(=O)NCC(N)=O)NC1=O [Example 9192] ({CH2CO}-[Phe(3,4,5-F3)][NMeF][NMeA][dNMeA][hSer]V[NMeF]Y[dNMeA]WYLCG-NH2; thioether N-13)	–	14 nM
CCCC[C@H]1C(=O)N2C[C@@H](C)C[C@@H]2C(=O)N[C@@H](CC(=O)O)C(=O)N[C@@H](C(C)C)C(=O)N(C)[C@H](Cc2ccccc2)C(=O)N[C@@H](Cc2ccc(OC)cc2)C(=O)N2C[C@@H](O)C[C@@H]2C(=O)N[C@@H](Cc2c[nH]c3ccccc23)C(=O)N[C@@H](Cc2ccc(O)cc2)C(=O)N[C@@H](CCCN)C(=O)N[C@H](C(=O)NCC(N)=O)CSCC(=O)N[C@@H](Cc2ccc(F)c(F)c2)C(=O)N(C)[C@@H](Cc2ccccc2)C(=O)N1C [Example 9230] ({CH2CO}-[Phe(3,4-F2)][NMeF][NMeNle][dPro(4S-Me)]DV[dNMeF]Y(Me)[dHyp]WY[Orn]CG-NH2; thioether N-13)	10 to 99.9 nM	–
CCCC[C@H]1C(=O)N(C)[C@@H](CCCC)C(=O)N[C@@H](C)C(=O)N[C@H](C(=O)NCC(N)=O)CSCC(=O)N[C@@H](Cc2ccc(O)cc2)C(=O)N2CCCC[C@H]2C(=O)N[C@@H](CC(N)=O)C(=O)N2CCC[C@H]2C(=O)N[C@@H](Cc2cnc[nH]2)C(=O)N[C@@H](CCC(N)=O)C(=O)N2C[C@H](O)C[C@H]2C(=O)N[C@@H](Cc2c[nH]c3ccccc23)C(=O)N[C@@H](CO)C(=O)N[C@@H](Cc2c[nH]c3ccccc23)C(=O)N1C [Example 1255]	–	2.6 nM
CCCC[C@H]1C(=O)N2C[C@H](O)C[C@@H]2C(=O)N[C@@H](CC(=O)O)C(=O)N[C@@H](C(C)C)C(=O)N(C)[C@@H](Cc2ccccc2)C(=O)N[C@@H](Cc2ccc(O)cc2)C(=O)N2CCOC[C@@H]2C(=O)N[C@@H](Cc2c[nH]c3ccccc23)C(=O)N[C@@H](Cc2ccc(O)cc2)C(=O)N[C@@H](CCO)C(=O)N[C@H](C(=O)NCC(N)=O)CSCC(=O)N[C@@H](Cc2cc(F)c(F)c(F)c2)C(=O)N(C)[C@@H](Cc2ccccc2)C(=O)N1C [Example 10159] ({CH2CO}-[Phe(3,4,5-F3)][NMeF][NMeNle][d(cisHyp)]DV[NMeF]Y[X1]WY[hSer]CG-NH2; thioether N-13)	1 to 9.9 nM	–
CCCC[C@H]1C(=O)N2CCC[C@@H]2C(=O)N[C@@H](CC(=O)O)C(=O)N[C@@H](C(C)C)C(=O)N(C)[C@@H](Cc2ccccc2)C(=O)N[C@@H](Cc2ccc(O)cc2)C(=O)N2CCC[C@@H]2C(=O)N[C@@H]([C@@H](C)c2c[nH]c3ccccc23)C(=O)N[C@@H](Cc2ccc(O)cc2)C(=O)N[C@@H](CC(C)C)C(=O)N[C@H](C(=O)NCC(N)=O)CSCC(=O)N[C@@H](Cc2ccccc2)C(=O)N(C)[C@@H](Cc2ccccc2)C(=O)N1C [Example 10535] ({CH2CO}-F[NMeF][NMeNle][dP]DV[NMeF]Y[dP][Trp(βS-Me)]YLCG-NH2; thioether N-13)	1 to 9.9 nM	–
CCCC[C@H]1C(=O)N(C)[C@@H](CCCC)C(=O)N[C@@H](CN)C(=O)N[C@H](C(=O)NCC(N)=O)CSCC(=O)N[C@@H](Cc2ccc(O)cc2)C(=O)N(C)[C@@H](C)C(=O)N[C@@H](CC(N)=O)C(=O)N2CCC[C@H]2C(=O)N[C@@H](CO)C(=O)N[C@@H](Cc2cnc[nH]2)C(=O)N2C[C@H](O)C[C@H]2C(=O)N[C@@H](Cc2c[nH]c3ccccc23)C(=O)N[C@@H](CCN)C(=O)N[C@@H](Cc2cn(CC(=O)O)c3ccccc23)C(=O)N1C [Example 6247] ({CH2CO}-Y[NMeA]NPSH[Hyp]W[Dab][Trp(1-CH2COOH)][NMeNle][NMeNle][Dap]CG-NH2; thioether N-14)	1 to 9.9 nM	–
CCCC[C@H]1C(=O)N2CCOC[C@@H]2C(=O)N[C@@H](CC(=O)O)C(=O)N[C@@H](C(C)C)C(=O)N(C)[C@@H](Cc2ccccc2)C(=O)N[C@@H](Cc2ccc(O)cc2)C(=O)N2CCOC[C@@H]2C(=O)N[C@@H](Cc2c[nH]c3ccccc23)C(=O)N[C@@H](Cc2ccc(O)cc2)C(=O)N[C@@H](CC(C)C)C(=O)N[C@H](C(=O)NCC(N)=O)CSCC(=O)N[C@@H](Cc2cc(F)c(F)c(F)c2)C(=O)N(C)[C@@H](Cc2ccccc2)C(=O)N1C [Example 9283] ({CH2CO}-[Phe(3,4,5-F3)][NMeF][NMeNle][X1]DV[NMeF]Y[X1]WYLCG-NH2; thioether N-13)	1 to 9.9 nM	–
CCCC[C@H]1C(=O)N(C)[C@@H](CCCC)C(=O)N[C@@H](CCN)C(=O)NC(C(=O)NCC(N)=O)CSCC(=O)N[C@@H](Cc2ccc(O)cc2)C(=O)N(C)[C@@H](C)C(=O)N[C@@H](CC(N)=O)C(=O)N2CCC[C@H]2C(=O)N[C@@H](CC(N)=O)C(=O)N[C@@H](CC(C)C)C(=O)N2CCC[C@H]2C(=O)N[C@@H](Cc2c[nH]c3ccccc23)C(=O)N[C@@H](CO)C(=O)N[C@@H](Cc2c[nH]c3ccccc23)C(=O)N1C (stereo partly drawn) [Example 9162] ({CH2CO}-Y[NMeA]NPNLPWSW[NMeNle][NMeNle][Dab][ξC]G-NH2; thioether N-14)	1 to 9.9 nM	–
CCCC[C@H]1C(=O)N(C)[C@@H](CCCC)C(=O)N[C@@H](CC(C)C)C(=O)N[C@H](C(=O)NCC(N)=O)CSCC(=O)N[C@@H](Cc2ccc(O)cc2)C(=O)N(C)[C@@H](C)C(=O)N[C@@H](CC(N)=O)C(=O)N2CCCC2C(=O)N[C@@H](Cc2cnc[nH]2)C(=O)N[C@@H](CCC(N)=O)C(=O)N[C@H](C)C(=O)N[C@@H](Cc2c[nH]c3ccccc23)C(=O)N[C@@H](CO)C(=O)N[C@@H](Cc2c[nH]c3ccccc23)C(=O)N1C (stereo partly drawn) [Example 6168] ({CH2CO}-Y[NMeA]N[ξP]HQ[dA]WSW[NMeNle][NMeNle]LCG-NH2; thioether N-14)	10 to 99.9 nM	–
CCCC[C@H]1C(=O)N(C)CC(=O)N[C@@H](CC(=O)O)C(=O)N[C@@H](C(C)C)C(=O)N(C)[C@@H](Cc2ccccc2)C(=O)N[C@@H](Cc2ccc(O)cc2)C(=O)N(C)CC(=O)NC(Cc2c[nH]c3ncccc23)C(=O)N[C@@H](Cc2ccc(O)cc2)C(=O)N[C@@H](CC(C)C)C(=O)N[C@H](C(=O)NCC(N)=O)CSCC(=O)N[C@@H](CC2CCCCC2)C(=O)N(C)[C@@H](Cc2ccccc2)C(=O)N1C (stereo partly drawn) [Example 3240] ({CH2CO}-[Cha][NMeF][NMeNle][Sar]DV[NMeF]Y[Sar][ξTrp(7-aza)]YLCG-NH2; thioether N-13)	100 to 990 nM	–
CCCC[C@H]1C(=O)N2CCC[C@@H]2C(=O)N[C@@H](CC(=O)O)C(=O)N[C@@H](C(C)C)C(=O)N(C)[C@@H](Cc2ccccc2)C(=O)N[C@@H](Cc2ccc(O)cc2)C(=O)N2CCC[C@@H]2C(=O)N[C@@H](Cc2c[nH]c3ccccc23)C(=O)N[C@@H](Cc2ccc(O)cc2)C(=O)N[C@@H](CCC(=O)O)C(=O)N[C@H](C(=O)NCC(N)=O)CSCC(=O)N[C@@H](Cc2cc(F)c(F)c(F)c2)C(=O)N(C)[C@@H](Cc2ccccc2)C(=O)N1C [Example 10097] ({CH2CO}-[Phe(3,4,5-F3)][NMeF][NMeNle][dP]DV[NMeF]Y[dP]WYECG-NH2; thioether N-13)	1 to 9.9 nM	–
CCCC[C@H]1C(=O)N2C[C@H](O)C[C@@H]2C(=O)N[C@@H](CC(=O)O)C(=O)N[C@@H](C(C)C)C(=O)N(C)[C@@H](Cc2ccccc2)C(=O)N[C@@H](CCC(N)=O)C(=O)N2C[C@H](O)C[C@@H]2C(=O)N[C@@H](Cc2c[nH]c3ccccc23)C(=O)N[C@@H](Cc2ccc(O)cc2)C(=O)N[C@@H](CCC(=O)O)C(=O)N[C@H](C(=O)NCC(N)=O)CSCC(=O)N[C@@H](Cc2ccc(F)c(F)c2)C(=O)N(C)[C@@H](Cc2ccccc2)C(=O)N1C [Example 9315] ({CH2CO}-[Phe(3,4-F2)][NMeF][NMeNle][d(cisHyp)]DV[NMeF]Q[d(cisHyp)]WYECG-NH2; thioether N-13)	10 to 99.9 nM	–
CCCC[C@H]1C(=O)N2CCC[C@@H]2C(=O)N[C@@H](CC(=O)O)C(=O)N[C@@H](C(C)C)C(=O)N(C)[C@@H](Cc2ccccc2)C(=O)N[C@@H](CCC(=O)O)C(=O)N2CCCC[C@@H]2C(=O)N[C@@H](Cc2c[nH]c3ccccc23)C(=O)N[C@@H](Cc2ccc(O)cc2)C(=O)N[C@@H](CO)C(=O)N[C@H](C(=O)NCC(N)=O)CSCC(=O)N[C@@H](Cc2cc(F)c(F)c(F)c2)C(=O)N(C)[C@@H](Cc2ccc(F)cc2)C(=O)N1C [Example 10565] ({CH2CO}-[Phe(3,4,5-F3)][NMePhe(4-F)][NMeNle][dP]DV[NMeF]E[dPip]WYSCG-NH2; thioether N-13)	1 to 9.9 nM	–
CCCC[C@H]1C(=O)N2C[C@H](O)C[C@@H]2C(=O)N[C@@H](CC(=O)O)C(=O)N[C@@H](C(C)C)C(=O)N(C)[C@H](Cc2ccccc2)C(=O)N[C@@H](CCN)C(=O)N2C[C@H](O)C[C@@H]2C(=O)N[C@@H](Cc2c[nH]c3ccccc23)C(=O)N[C@@H](Cc2ccc(O)cc2)C(=O)N[C@@H](CCCN)C(=O)N[C@H](C(=O)NCC(N)=O)CSCC(=O)N[C@@H](Cc2ccc(F)c(F)c2)C(=O)N(C)[C@@H](Cc2ccccc2)C(=O)N1C [Example 9311] ({CH2CO}-[Phe(3,4-F2)][NMeF][NMeNle][d(cisHyp)]DV[dNMeF][Dab][d(cisHyp)]WY[Orn]CG-NH2; thioether N-13)	1 to 9.9 nM	–
